What was measured:
[1] = test system: cytolysin positive strain of E. faecalis; assay: Enterococcus faecalis cultures, growth by optical density at 600 nm; type: cell-based; conditions: BHI media with 0, 0.25, 0.5, 1, 2 or 20 mg/mL of 2′-FL, 6 h, sampling every 30 min (FIG. 5G)
Procedure: Enterococcus faecalis cultures. A cytolysin positive strain of E. faecalis, which was isolated from feces of an ethanol-fed Atp4a^s1/s1 mouse, was cultured in BHI media with 0, 0.25, 0.5, 1, 2 or 20 mg/mL of 2′-FL in triplicate for each concentration. Sampling was taken at 30 min intervals during the course of 6 h. Cell growth was determined by measuring the optical density at 600 nm for each time-point.

Fut2^−/− mice = assay: 2′-FL supplementation in chronic-binge ethanol diet (NIAAA model), ethanol-induced liver disease; type: in vivo, mouse
Procedure: In the 2′-fucosyllactose (2′-FL; a gift from Jennewein Biotechnologie GmbH, Germany) supplementation experiments we used a chronic-binge ethanol diet (NIAAA model). Fut2^−/− mice (10-11 weeks, male and female) were fed with Lieber-DeCarli diet with caloric intake from ethanol 0% on days 1-5 and 36% of total calories from day 6 to day 16. At day 16 in the early morning, mice were gavaged with a single dose of ethanol (5 g/kg body weight) and harvested 9 hours later. In the 2′-FL treated groups 2′-FL was added in the ethanol diet at a final concentration of 2 mg/mL and given continuously during the study period. Formalin-fixed and paraffin-embedded mouse livers were stained with hematoxylin-eosin (Leica Biosystems Inc.) using standard staining protocols. Frozen liver sections were stained with Oil Red O (Sigma-Aldrich, 00625). Biochemical assays. Levels of plasma alanine aminotransferase (ALT) were measured using infinity ALT kit (Thermo Scientific, TR71121). Triglyceride levels were measured using the Triglyceride Liquid Reagents Kit (Pointe Scientific, 51604). Reverse transcription and real-time quantitative PCR. For reverse transcription qPCR, RNA was extracted from mouse liver, and cDNAs were generated as described. DNA from mouse feces was extracted using QIAamp Fast DNA Stool kit (Qiagen, 51604). Quantitative PCR was performed with iTaq universal SYBR Green Supermix (Bio-Rad, 1725124) using a StepOnePlus thermocycler real-time PCR system. Primer sequences for mouse genes were obtained from the NIH qPrimerDepot. The values of mouse genes were normalized to 18S, while bacterial genes were normalized to 16S.

E. faecalis = assay: Fecal E. faecalis and cytolysin by qPCR in chronic-binge ethanol diet-fed mice; type: in vivo, mouse; conditions: Fut2^−/− mice
Procedure: In the 2′-fucosyllactose (2′-FL; a gift from Jennewein Biotechnologie GmbH, Germany) supplementation experiments we used a chronic-binge ethanol diet (NIAAA model). Fut2^−/− mice (10-11 weeks, male and female) were fed with Lieber-DeCarli diet with caloric intake from ethanol 0% on days 1-5 and 36% of total calories from day 6 to day 16. At day 16 in the early morning, mice were gavaged with a single dose of ethanol (5 g/kg body weight) and harvested 9 hours later. In the 2′-FL treated groups 2′-FL was added in the ethanol diet at a final concentration of 2 mg/mL and given continuously during the study period.
Reverse transcription and real-time quantitative PCR. For reverse transcription qPCR, RNA was extracted from mouse liver, and cDNAs were generated as described. DNA from mouse feces was extracted using QIAamp Fast DNA Stool kit (Qiagen, 51604). Quantitative PCR was performed with iTaq universal SYBR Green Supermix (Bio-Rad, 1725124) using a StepOnePlus thermocycler real-time PCR system. Primer sequences for mouse genes were obtained from the NIH qPrimerDepot. The values of mouse genes were normalized to 18S, while bacterial genes were normalized to 16S.

Compound: CC1O[C@@H](OC2[C@H](O[C@@H]3C(CO)OC(O)C(O)[C@H]3O)OC(CO)[C@H](O)[C@@H]2O)[C@@H](O)C(O)[C@@H]1O (stereo partly shown) [2′-FL, 2′-fucosyllactose]
- E. faecalis growth (OD600) [1]: not affected
- Metabolism of ethanol (plasma ethanol, hepatic Adh1 mRNA, hepatic Cyp2e1 mRNA) (Fut2^−/− mice; 2′-FL 2 mg/mL in diet for 2 weeks (FIG. 4G-4I)): without affecting
- Plasma alanine aminotransferase (ALT) (Fut2^−/− mice; 2′-FL 2 mg/mL in diet for 2 weeks, compared with ethanol diet alone (FIG. 4A)): lower
- Hepatic triglyceride (Fut2^−/− mice; 2′-FL 2 mg/mL in diet for 2 weeks, compared with ethanol diet alone (FIG. 4B)): lower
- Liver histopathology (H&E-stained liver tissue) (Fut2^−/− mice; 2′-FL 2 mg/mL in diet for 2 weeks, compared with ethanol diet alone (FIG. 4C)): improvement
- Hepatic Cxcl1 mRNA level (Fut2^−/− mice; 2′-FL 2 mg/mL in diet for 2 weeks, compared with ethanol diet alone (FIG. 4D)): decreased
- Hepatic Cxcl2 mRNA level (Fut2^−/− mice; 2′-FL 2 mg/mL in diet for 2 weeks, compared with ethanol diet alone (FIG. 4E)): decreased
- Oil Red O staining of liver tissue (Fut2^−/− mice; 2′-FL 2 mg/mL in diet for 2 weeks, compared with ethanol diet alone (FIG. 4F)): improvement
- Intestinal amount of E. faecalis (fecal E. faecalis, qPCR) (E. faecalis; chronic-binge ethanol diet with or without 2′-FL for 2 weeks (FIG. 5E)): decreased
- Fecal cytolysin (qPCR) (E. faecalis; chronic-binge ethanol diet with or without 2′-FL for 2 weeks (FIG. 5F)): decreased

Source: US11896603B2, “Oligosaccharide as therapeutic agent for alcohol associated liver disease” (The Regents of the University of California, priority 2020, dated 2024)
